Experimental findings from patent US20210238225A1, “PEPTIDOMIMETIC INHIBITORS OF THE PEPTIDYL-PROLYL CIS/TRANS ISOMERASE (PIN1)” (DANA-FARBER CANCER INSTITUTE, INC., priority 2018, published 2021) are described below.

By Ki is commonly meant the equilibrium dissociation constant of an inhibitor or competing ligand from its target.

Non-standard residues stand in square brackets, D forms with d. Residues, ends and D or L forms follow the SMILES beside them. *: point of attachment. Phe(4-CONH2) = NC(=O)c1ccc(C[C@H](N)C(=O)O)cc1; Bpa = N[C@@H](Cc1ccc(C(=O)c2ccccc2)cc1)C(=O)O; 2Nal = N[C@@H](Cc1ccc2ccccc2c1)C(=O)O; Met(O2) = CS(=O)(=O)CC[C@H](N)C(=O)O; NMeY = CN[C@@H](Cc1ccc(O)cc1)C(=O)O; NMeE = CN[C@@H](CCC(=O)O)C(=O)O; pS = N[C@@H](COP(=O)(O)O)C(=O)O; β3hE = N[C@@H](CCC(=O)O)CC(=O)O; Cha = N[C@@H](CC1CCCCC1)C(=O)O; Cit = NC(=O)NCCC[C@H](N)C(=O)O; aThr = C[C@H](O)[C@H](N)C(=O)O; Pip = O=C(O)[C@@H]1CCCCN1; Ac6c = NC1(C(=O)O)CCCCC1; 2Abz = Nc1ccccc1C(=O)O; ClAc = O=C(CCl)*

Sequence of Pin1 (GST-Pin1) (Q13526 whole entry): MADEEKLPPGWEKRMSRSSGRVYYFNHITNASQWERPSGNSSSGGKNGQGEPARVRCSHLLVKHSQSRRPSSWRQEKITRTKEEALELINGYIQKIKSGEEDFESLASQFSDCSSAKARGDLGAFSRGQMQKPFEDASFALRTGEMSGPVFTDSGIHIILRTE

One test concerns the target Pin1 (GST-Pin1) (Homo sapiens, UniProt Q13526). Put plainly: Fluorescence polarization (FP) assay, binding to Pin1. As to conditions: Ki, μM (FP Assay), competition with fluorescein-labeled peptide probe; 12 hours pre-incubation at 4° C.; Kenakin Ki equation.
Consider `NC(=O)NCCC[C@H](NC(=O)[C@H](Cc1ccc2ccccc2c1)NC(=O)C1(NC(=O)[C@H](CCC(=O)O)NC(=O)CCl)CCCCC1)C(N)=O` [Compound 2-10, (S)-5-((1-(((S)-1-(((S)-1-Amino-1-oxo-5-ureidopentan-2-yl)amino)-3-(naphthalen-2-yl)-1-oxopropan-2-yl)carbamoyl)cyclohexyl)amino)-4-(2-chloroacetamido)-5-oxopentanoic acid] (ClAc-E[Ac6c][2Nal][Cit]-NH2), for which the Ki is over 10 µM.
Same read-out and setting: in the case of `NC(=O)NCCC[C@H](NC(=O)[C@H](Cc1ccc2ccccc2c1)NC(=O)[C@H](CC1CCCCC1)NC(=O)[C@H](CCC(=O)O)NC(=O)CCl)C(N)=O` [Compound 2-15, (6S,9S,12S,15S)-1-Amino-6-carbamoyl-15-(2-chloroacetamido)-12-(cyclohexylmethyl)-9-(naphthalen-2-ylmethyl)-1,8,11,14-tetraoxo-2,7,10,13-tetraazaoctadecan-18-oic acid] (ClAc-E[Cha][2Nal][Cit]-NH2) it was over 10 µM.

Still in this test, the particulars now being: competition with fluorescein-labeled peptide probe; 12 hours pre-incubation at 4° C.; Kenakin Ki equation; read-out: Ki, μM (FP Assay).
In the case of `NC(=O)C[C@H](NC(=O)[C@H](Cc1ccc2ccccc2c1)NC(=O)[C@@H]1CCCCN1C(=O)[C@H](CCC(=O)O)NC(=O)CCl)C(N)=O` [Compound 2-8, (S)-4-(2-Chloroacetamido)-5-((S)-2-(((S)-1-(((S)-1,4-diamino-1,4-dioxobutan-2-yl)amino)-3-(naphthalen-2-yl)-1-oxopropan-2-yl)carbamoyl)piperidin-1-yl)-5-oxopentanoic acid] (ClAc-E[Pip][2Nal]N-NH2), the inhibition constant (Ki) turned out to be 0.13 µM.
With `NC(=O)c1ccc(C[C@H](NC(=O)[C@H](Cc2ccc3ccccc3c2)NC(=O)[C@@H]2CCCCN2C(=O)[C@H](CCC(=O)O)NC(=O)CCl)C(N)=O)cc1` [Compound 2-9, (S)-5-((S)-2-(((S)-1-(((S)-1-Amino-3-(4-carbamoylphenyl)-1-oxopropan-2-yl)amino)-3-(naphthalen-2-yl)-1-oxopropan-2-yl)carbamoyl)piperidin-1-yl)-4-(2-chloroacetamido)-5-oxopentanoic acid] (ClAc-E[Pip][2Nal][Phe(4-CONH2)]-NH2), the Ki amounted to 0.33 µM.
The same measure, in the same setting: the value for `NC(=O)NCCC[C@H](NC(=O)[C@H](Cc1ccc2ccccc2c1)NC(=O)[C@@H]1CCCCN1C(=O)C[C@H](CCC(=O)O)NC(=O)CCl)C(N)=O` [Compound 2-12, (S)-6-((S)-2-(((S)-1-(((S)-1-Amino-1-oxo-5-ureidopentan-2-yl)amino)-3-(naphthalen-2-yl)-1-oxopropan-2-yl)carbamoyl)piperidin-1-yl)-4-(2-chloroacetamido)-6-oxohexanoic acid] (ClAc-[β3hE][Pip][2Nal][Cit]-NH2) was 0.106 µM.
`NC(=O)[C@H](Cc1c[nH]c2ccccc12)NC(=O)[C@H](Cc1ccc2ccccc2c1)NC(=O)[C@@H]1CCCCN1C(=O)[C@H](CCC(=O)O)NC(=O)CCl` [Compound 2-13, (S)-5-((S)-2-(((S)-1-(((S)-1-Amino-3-(1H-indol-3-yl)-1-oxopropan-2-yl)amino)-3-(naphthalen-2-yl)-1-oxopropan-2-yl)carbamoyl)piperidin-1-yl)-4-(2-chloroacetamido)-5-oxopentanoic acid] (ClAc-E[Pip][2Nal]W-NH2): the Ki was 0.13 µM.
Still for that read-out and setting: in the case of `CS(=O)(=O)CC[C@H](NC(=O)CCl)C(=O)N1CCCC[C@H]1C(=O)N[C@@H](Cc1ccc2ccccc2c1)C(=O)N[C@@H](CCCNC(N)=O)C(N)=O` [Compound 2-14, (S)—N—((S)-1-(((S)-1-Amino-1-oxo-5-ureidopentan-2-yl)amino)-3-(naphthalen-2-yl)-1-oxopropan-2-yl)-1-((S)-2-(2-chloroacetamido)-4-(methylsulfonyl)butanoyl)piperidine-2-carboxamide] (ClAc-[Met(O2)][Pip][2Nal][Cit]-NH2) it was 0.13 µM; in that of `NC(=O)NCCC[C@H](NC(=O)[C@H](Cc1ccc2ccccc2c1)NC(=O)c1ccccc1NC(=O)[C@H](CCC(=O)O)NC(=O)CCl)C(N)=O` [Compound 2-16, (S)-5-((2-(((S)-1-(((S)-1-Amino-1-oxo-5-ureidopentan-2-yl)amino)-3-(naphthalen-2-yl)-1-oxopropan-2-yl)carbamoyl)phenyl)amino)-4-(2-chloroacetamido)-5-oxopentanoic acid] (ClAc-E[2Abz][2Nal][Cit]-NH2), over 10 µM; in that of `NC(=O)NCCC[C@H](NC(=O)[C@H](Cc1ccc(C(=O)c2ccccc2)cc1)NC(=O)[C@@H]1CCCCN1C(=O)[C@H](CCC(=O)O)NC(=O)CCl)C(N)=O` [Compound 2-17, (S)-5-((S)-2-(((S)-1-(((S)-1-Amino-1-oxo-5-ureidopentan-2-yl)amino)-3-(4-benzoylphenyl)-1-oxopropan-2-yl)carbamoyl)piperidin-1-yl)-4-(2-chloroacetamido)-5-oxopentanoic acid] (ClAc-E[Pip][Bpa][Cit]-NH2), 0.11 µM.
The same measure, in the same setting: in the case of `COC(=O)CC[C@H](NC(=O)CCl)C(=O)N1CCCC[C@H]1C(=O)N[C@@H](Cc1ccc2ccccc2c1)C(=O)N[C@@H](CCCNC(N)=O)C(N)=O` [Compound 2-18, Methyl (S)-5-((S)-2-(((S)-1-(((S)-1-amino-1-oxo-5-ureidopentan-2-yl)amino)-3-(naphthalen-2-yl)-1-oxopropan-2-yl)carbamoyl)piperidin-1-yl)-4-(2-chloroacetamido)-5-oxopentanoate] (ClAc-E(OMe)[Pip][2Nal][Cit]-NH2) it was 0.14 µM; in that of `CC(=O)N[C@@H](CCC(=O)O)C(=O)N1CCCC[C@H]1C(=O)N[C@@H](Cc1ccc2ccccc2c1)C(=O)N[C@@H](CCCNC(N)=O)C(N)=O` [Compound 2-19, (S)-4-Acetamido-5-((S)-2-(((S)-1-(((S)-1-amino-1-oxo-5-ureidopentan-2-yl)amino)-3-(naphthalen-2-yl)-1-oxopropan-2-yl)carbamoyl)piperidin-1-yl)-5-oxopentanoic acid] (Ac-E[Pip][2Nal][Cit]-NH2), over 10 µM; in that of `C[C@H](O)[C@H](NC(=O)CCl)C(=O)N1CCCC[C@H]1C(=O)N[C@@H](Cc1c[nH]c2ccccc12)C(=O)N[C@@H](CCCNC(N)=O)C(N)=O` [Compound 2-20, (S)—N—((S)-1-(((S)-1-Amino-1-oxo-5-ureidopentan-2-yl)amino)-3-(1H-indol-3-yl)-1-oxopropan-2-yl)-1-((2-chloroacetyl)-L-allothreonyl)piperidine-2-carboxamide] (ClAc-[aThr][Pip]W[Cit]-NH2), 0.122 µM.
Still for that read-out and setting: the value for `NC(=O)NCCC[C@H](NC(=O)[C@H](Cc1c[nH]c2ccccc12)NC(=O)[C@@H]1CCCCN1C(=O)[C@H](COP(=O)(O)O)NC(=O)CCl)C(N)=O` [Compound 2-21, (S)-3-((S)-2-(((S)-1-(((S)-1-Amino-1-oxo-5-ureidopentan-2-yl)amino)-3-(1H-indol-3-yl)-1-oxopropan-2-yl)carbamoyl)piperidin-1-yl)-2-(2-chloroacetamido)-3-oxopropyl dihydrogen phosphate] (ClAc-[pS][Pip]W[Cit]-NH2) was 0.004 µM; that for `COC(=O)CC[C@H](NC(=O)CCl)C(=O)N1CCCC[C@H]1C(=O)N[C@@H](Cc1c[nH]c2ccccc12)C(=O)N[C@@H](Cc1ccccc1)C(N)=O` [Compound 2-23, Methyl (S)-5-((S)-2-(((S)-1-(((S)-1-Amino-1-oxo-3-phenylpropan-2-yl)amino)-3-(1H-indol-3-yl)-1-oxopropan-2-yl)carbamoyl)piperidin-1-yl)-4-(2-chloroacetamido)-5-oxopentanoate] (ClAc-E(OMe)[Pip]WF-NH2) was 0.231 µM; that for `COC(=O)CC[C@H](NC(=O)CCl)C(=O)N1CCCC[C@H]1C(=O)N[C@@H](Cc1c[nH]c2ccccc12)C(=O)N[C@@H](Cc1ccc2ccccc2c1)C(N)=O` [Compound 2-24, Methyl (S)-5-((S)-2-(((S)-1-(((S)-1-Amino-3-(naphthalen-2-yl)-1-oxopropan-2-yl)amino)-3-(1H-indol-3-yl)-1-oxopropan-2-yl)carbamoyl)piperidin-1-yl)-4-(2-chloroacetamido)-5-oxopentanoate] (ClAc-E(OMe)[Pip]W[2Nal]-NH2) was 0.525 µM.
Regarding `C[C@H](O)[C@H](NC(=O)CCl)C(=O)N1CCCC[C@H]1C(=O)N[C@@H](Cc1c[nH]c2ccccc12)C(=O)N[C@@H](Cc1ccc(O)cc1)C(N)=O` [Compound 2-26, (S)—N—((S)-1-(((S)-1-Amino-3-(4-hydroxyphenyl)-1-oxopropan-2-yl)amino)-3-(1H-indol-3-yl)-1-oxopropan-2-yl)-1-((2-chloroacetyl)-L-allothreonyl)piperidine-2-carboxamide] (ClAc-[aThr][Pip]WY-NH2), the Ki stood at 0.299 µM.
Still for that read-out and setting: in the case of `COC(=O)CC[C@H](NC(=O)CCl)C(=O)N1CCCC[C@H]1C(=O)N[C@@H](Cc1c[nH]c2ccccc12)C(=O)N(C)[C@@H](Cc1ccc(O)cc1)C(N)=O` [Compound 2-28, Methyl (S)-5-((S)-2-(((S)-1-(((S)-1-amino-3-(4-hydroxyphenyl)-1-oxopropan-2-yl)(methyl)-amino)-3-(1H-indol-3-yl)-1-oxopropan-2-yl)carbamoyl)piperidin-1-yl)-4-(2-chloroacetamido)-5-oxopentanoate] (ClAc-E(OMe)[Pip]W[NMeY]-NH2) it was over 10 µM; in that of `CN(C(=O)CCl)[C@@H](CCC(=O)O)C(=O)N1CCCC[C@H]1C(=O)N[C@@H](Cc1c[nH]c2ccccc12)C(=O)N[C@@H](Cc1ccc(O)cc1)C(N)=O` [Compound 2-31, (S)-5-((S)-2-(((S)-1-(((S)-1-Amino-3-(4-hydroxyphenyl)-1-oxopropan-2-yl)amino)-3-(1H-indol-3-yl)-1-oxopropan-2-yl)carbamoyl)piperidin-1-yl)-4-(2-chloro-N-methylacetamido)-5-oxopentanoic acid] (ClAc-[NMeE][Pip]WY-NH2), 0.07 µM.
Same read-out and setting: in the case of `CC(=O)N[C@@H](CCC(=O)O)C(=O)N1CCCC[C@H]1C(=O)N[C@@H](Cc1c[nH]c2ccccc12)C(=O)N[C@@H](CCCNC(N)=O)C(N)=O` [Compound 2-33, (S)-4-Acetamido-5-((S)-2-(((S)-1-(((S)-1-amino-1-oxo-5-ureidopentan-2-yl)amino)-3-(1H-indol-3-yl)-1-oxopropan-2-yl)carbamoyl)piperidin-1-yl)-5-oxopentanoic acid] (Ac-E[Pip]W[Cit]-NH2) it was over 10 µM.
